Reference: ChEMBL document CHEMBL4118128, “Discovery of chiral dihydropyridopyrimidinones as potent, selective and orally bioavailable inhibitors of AKT” (Bioorg Med Chem Lett, 2018)
≈ marks a conversion by molar mass, not a printed value. Calls of active or inactive are those of the source. No cut-off for these calls is given here.

Assays:
[1] = biological target: Ribosomal protein S6 kinase beta-1 (Homo sapiens, UniProt P23443); assay: Inhibition of human p70S6K measured at apparent ATP Km level
Chain of Ribosomal protein S6 kinase beta-1 (P23443 whole entry): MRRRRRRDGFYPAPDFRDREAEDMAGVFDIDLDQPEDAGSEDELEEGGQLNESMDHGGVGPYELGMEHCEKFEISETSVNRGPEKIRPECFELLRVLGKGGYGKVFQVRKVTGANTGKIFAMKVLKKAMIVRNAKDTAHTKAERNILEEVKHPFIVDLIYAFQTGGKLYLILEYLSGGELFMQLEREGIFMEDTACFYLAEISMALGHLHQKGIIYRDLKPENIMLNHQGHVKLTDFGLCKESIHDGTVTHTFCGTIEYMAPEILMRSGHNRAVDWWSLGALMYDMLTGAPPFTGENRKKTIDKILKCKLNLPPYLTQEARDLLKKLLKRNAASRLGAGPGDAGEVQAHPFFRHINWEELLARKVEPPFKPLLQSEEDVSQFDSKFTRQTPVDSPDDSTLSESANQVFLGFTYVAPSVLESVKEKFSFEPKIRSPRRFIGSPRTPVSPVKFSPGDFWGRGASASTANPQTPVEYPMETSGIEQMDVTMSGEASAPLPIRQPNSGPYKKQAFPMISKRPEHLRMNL

[2] = AUC (0 to 24 hrs) in Sprague-Dawley rat at 5 mg/kg, po by LC-MS/MS method; assay type: ADME, organism-based; parameters: dose 5 mg/kg, time < 24 hr, route oral; settings: in vivo
[3] = Half life in Sprague-Dawley rat at 10 mg/kg, iv by LC-MS/MS method; assay type: ADME, organism-based; settings: in vivo
[4] = Lipophilicity, log P of the compound; assay type: physicochemical; settings: octanol/water
[5] = species on record: Homo sapiens; assay: Selectivity index, ratio of IC50 for human recombinant ROCK2 (11 to 552 residues) expressed in insect cells to IC50 for human recombinant AKT1 expressed in insect cells
[6] = biological target: T1, RAC-alpha serine/threonine-protein kinase (Homo sapiens, UniProt P31749); assay: Inhibition of human recombinant AKT1 expressed in insect cells incubated for 60 mins measured at apparent ATP Km level by kinase ADP-FP assay
T1 sequence (P31749 whole entry): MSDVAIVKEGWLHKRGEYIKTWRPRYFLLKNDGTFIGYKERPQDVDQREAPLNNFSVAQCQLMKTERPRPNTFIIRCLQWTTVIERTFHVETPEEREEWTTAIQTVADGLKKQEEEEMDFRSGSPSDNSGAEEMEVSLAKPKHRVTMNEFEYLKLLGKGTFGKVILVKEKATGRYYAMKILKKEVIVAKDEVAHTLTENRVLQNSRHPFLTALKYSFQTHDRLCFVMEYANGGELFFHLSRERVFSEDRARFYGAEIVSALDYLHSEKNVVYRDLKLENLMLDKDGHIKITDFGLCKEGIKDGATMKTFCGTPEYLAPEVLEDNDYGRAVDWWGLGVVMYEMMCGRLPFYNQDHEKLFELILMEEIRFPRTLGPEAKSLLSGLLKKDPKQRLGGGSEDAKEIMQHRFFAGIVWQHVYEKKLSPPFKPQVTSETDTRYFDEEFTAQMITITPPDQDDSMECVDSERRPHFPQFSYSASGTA

[7] = Volume of distribution at steady state in Sprague-Dawley rat at 10 mg/kg, iv or 5 mg/kg, po by LC-MS/MS method; assay type: ADME, organism-based; settings: in vivo, read-out: Vdss
[8] = biological target: Rho-associated protein kinase 2 (Homo sapiens, UniProt O75116); assay: Inhibition of histidine-tagged human recombinant ROCK2 (11 to 552 residues) expressed in insect cells using RFARKGSLRQKNV substrate incubated for 60 mins measured at apparent ATP Km level by kinase ADP-FP assay
Chain of Rho-associated protein kinase 2 (O75116 whole entry, the tested form may be a part): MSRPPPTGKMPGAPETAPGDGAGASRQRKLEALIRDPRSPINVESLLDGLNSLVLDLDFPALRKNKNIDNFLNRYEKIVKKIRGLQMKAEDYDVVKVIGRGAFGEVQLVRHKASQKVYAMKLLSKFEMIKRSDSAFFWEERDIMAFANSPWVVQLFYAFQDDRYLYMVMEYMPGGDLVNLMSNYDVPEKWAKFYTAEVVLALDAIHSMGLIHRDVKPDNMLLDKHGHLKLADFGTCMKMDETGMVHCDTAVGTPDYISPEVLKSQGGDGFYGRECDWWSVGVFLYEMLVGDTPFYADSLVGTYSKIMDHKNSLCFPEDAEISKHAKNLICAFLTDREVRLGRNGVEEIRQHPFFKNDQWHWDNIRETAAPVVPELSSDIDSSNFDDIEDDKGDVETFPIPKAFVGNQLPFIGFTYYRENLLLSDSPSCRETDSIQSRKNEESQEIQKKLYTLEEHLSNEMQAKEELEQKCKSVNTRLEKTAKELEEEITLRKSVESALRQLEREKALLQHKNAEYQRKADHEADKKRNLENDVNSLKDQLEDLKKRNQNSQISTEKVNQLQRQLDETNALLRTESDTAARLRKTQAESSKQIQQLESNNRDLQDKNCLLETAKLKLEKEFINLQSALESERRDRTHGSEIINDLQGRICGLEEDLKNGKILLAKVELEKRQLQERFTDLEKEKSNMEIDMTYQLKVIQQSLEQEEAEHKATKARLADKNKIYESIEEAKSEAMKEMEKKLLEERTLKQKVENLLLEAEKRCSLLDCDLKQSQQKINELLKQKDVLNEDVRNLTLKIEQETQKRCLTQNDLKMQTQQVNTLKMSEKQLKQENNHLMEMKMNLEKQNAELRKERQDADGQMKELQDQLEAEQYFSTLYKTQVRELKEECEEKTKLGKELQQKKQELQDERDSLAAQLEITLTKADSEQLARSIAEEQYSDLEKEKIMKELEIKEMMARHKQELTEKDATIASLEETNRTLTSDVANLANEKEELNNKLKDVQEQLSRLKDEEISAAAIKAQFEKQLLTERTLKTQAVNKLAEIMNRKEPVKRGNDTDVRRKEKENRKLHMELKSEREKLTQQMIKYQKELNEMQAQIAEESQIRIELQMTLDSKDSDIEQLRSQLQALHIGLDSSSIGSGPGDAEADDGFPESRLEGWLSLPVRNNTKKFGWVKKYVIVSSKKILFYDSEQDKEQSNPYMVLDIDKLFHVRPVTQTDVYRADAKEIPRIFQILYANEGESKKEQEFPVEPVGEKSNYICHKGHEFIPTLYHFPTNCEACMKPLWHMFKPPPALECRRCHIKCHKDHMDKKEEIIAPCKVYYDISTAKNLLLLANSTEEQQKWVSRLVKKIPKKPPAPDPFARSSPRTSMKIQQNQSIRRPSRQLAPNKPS

[9] = biological target: Protein kinase C beta type (Homo sapiens, UniProt P05771); assay: Inhibition of human PKCbeta2 measured at apparent ATP Km level
Chain of Protein kinase C beta type (P05771 whole entry): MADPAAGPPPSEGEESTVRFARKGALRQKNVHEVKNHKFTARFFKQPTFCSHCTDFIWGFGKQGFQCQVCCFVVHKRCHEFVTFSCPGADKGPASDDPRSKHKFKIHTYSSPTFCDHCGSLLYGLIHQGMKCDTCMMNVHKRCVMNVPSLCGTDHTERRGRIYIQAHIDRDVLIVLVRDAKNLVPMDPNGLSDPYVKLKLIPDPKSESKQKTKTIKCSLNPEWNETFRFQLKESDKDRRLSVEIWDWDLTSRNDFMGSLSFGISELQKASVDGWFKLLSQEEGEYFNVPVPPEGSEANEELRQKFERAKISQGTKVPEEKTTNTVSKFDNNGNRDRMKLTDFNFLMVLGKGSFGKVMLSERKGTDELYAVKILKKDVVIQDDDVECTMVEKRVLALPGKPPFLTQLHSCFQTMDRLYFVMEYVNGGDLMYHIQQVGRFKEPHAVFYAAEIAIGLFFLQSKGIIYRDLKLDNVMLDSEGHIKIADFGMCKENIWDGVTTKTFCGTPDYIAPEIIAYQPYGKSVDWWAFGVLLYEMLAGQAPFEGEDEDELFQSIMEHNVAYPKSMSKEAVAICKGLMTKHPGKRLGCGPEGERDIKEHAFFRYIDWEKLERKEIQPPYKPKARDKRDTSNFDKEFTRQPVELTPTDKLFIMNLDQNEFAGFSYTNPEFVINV

[10] = Aqueous solubility in pH 7.4 buffer; assay type: physicochemical
[11] = system: Mus musculus; assay: Ratio of AUC (0 to 24 hrs) in P-gp and BCRP knockout mouse at 2.5 mg/kg, po to AUC (0 to 24 hrs) in wild type mouse at 2.5 mg/kg, po; assay type: ADME, organism-based; settings: in vivo
[12] = system: Rattus norvegicus; assay: Intrinsic unbound clearance in Sprague-Dawley rat at 10 mg/kg, iv by LC-MS/MS method; assay type: ADME, organism-based; settings: in vivo
[13] = Clearance in Sprague-Dawley rat at 10 mg/kg, iv by LC-MS/MS method; assay type: ADME, organism-based; settings: in vivo
[14] = Cmax in wild type mouse at 2.5 mg/kg, po by LC-MS/MS method; assay type: ADME, organism-based; parameters: dose 2.5 mg/kg, route oral; settings: in vivo
[15] = biological target: Voltage-gated inwardly rectifying potassium channel KCNH2 (Homo sapiens, UniProt Q12809); assay: Inhibition of human ERG
Chain of Voltage-gated inwardly rectifying potassium channel KCNH2 (Q12809 whole entry): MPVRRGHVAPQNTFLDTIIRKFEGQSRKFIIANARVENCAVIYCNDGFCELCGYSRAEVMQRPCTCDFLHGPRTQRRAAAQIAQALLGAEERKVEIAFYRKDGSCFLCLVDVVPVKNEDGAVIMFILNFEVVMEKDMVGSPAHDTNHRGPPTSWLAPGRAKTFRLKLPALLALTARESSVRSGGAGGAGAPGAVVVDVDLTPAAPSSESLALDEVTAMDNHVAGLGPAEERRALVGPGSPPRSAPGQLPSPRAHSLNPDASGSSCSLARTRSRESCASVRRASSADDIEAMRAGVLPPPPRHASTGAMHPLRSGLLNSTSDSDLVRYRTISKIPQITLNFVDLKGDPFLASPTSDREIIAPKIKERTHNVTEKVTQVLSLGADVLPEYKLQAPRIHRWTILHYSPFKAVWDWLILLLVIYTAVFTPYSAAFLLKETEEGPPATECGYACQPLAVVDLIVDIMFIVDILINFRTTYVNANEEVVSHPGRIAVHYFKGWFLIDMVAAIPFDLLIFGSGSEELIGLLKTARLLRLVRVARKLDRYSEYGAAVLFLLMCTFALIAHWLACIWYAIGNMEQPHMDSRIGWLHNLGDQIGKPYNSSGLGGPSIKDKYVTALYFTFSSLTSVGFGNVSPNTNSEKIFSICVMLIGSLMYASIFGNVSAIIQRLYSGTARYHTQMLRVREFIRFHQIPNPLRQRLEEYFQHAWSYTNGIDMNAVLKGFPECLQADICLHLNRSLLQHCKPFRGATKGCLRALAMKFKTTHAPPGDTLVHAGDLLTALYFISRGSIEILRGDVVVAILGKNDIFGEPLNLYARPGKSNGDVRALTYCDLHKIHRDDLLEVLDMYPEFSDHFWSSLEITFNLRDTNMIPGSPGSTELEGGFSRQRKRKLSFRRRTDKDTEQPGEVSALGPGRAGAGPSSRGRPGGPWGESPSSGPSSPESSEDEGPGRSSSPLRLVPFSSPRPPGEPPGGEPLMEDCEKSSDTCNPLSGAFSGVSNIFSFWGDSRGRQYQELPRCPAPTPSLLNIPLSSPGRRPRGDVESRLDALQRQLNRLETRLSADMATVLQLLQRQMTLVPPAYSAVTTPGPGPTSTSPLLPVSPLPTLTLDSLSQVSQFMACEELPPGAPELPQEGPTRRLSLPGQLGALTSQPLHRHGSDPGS

[16] = AUC (0 to 24 hrs) in wild type mouse at 2.5 mg/kg, po by LC-MS/MS method; assay type: ADME, organism-based; parameters: time < 24 hr, dose 2.5 mg/kg, route oral; settings: in vivo
[17] = Inhibition of human PKA measured at apparent ATP Km level
[18] = Cmax in P-gp and BCRP knockout mouse at 2.5 mg/kg, po by LC-MS/MS method; assay type: ADME, organism-based; parameters: dose 2.5 mg/kg, route oral; settings: in vivo
[19] = biological target: T1, RAC-alpha serine/threonine-protein kinase; assay: Inhibition of AKT1 in human U87MG cells assessed as reduction in GSK3beta Ser9 phosphorylation incubated for 1 hr by alpha screen Surefire assay; assay type: cell-based
[20] = biological target: Ribosomal protein S6 kinase alpha-1 (Homo sapiens, UniProt Q15418); assay: Inhibition of human RSK1 measured at apparent ATP Km level
Chain of Ribosomal protein S6 kinase alpha-1 (Q15418 whole entry): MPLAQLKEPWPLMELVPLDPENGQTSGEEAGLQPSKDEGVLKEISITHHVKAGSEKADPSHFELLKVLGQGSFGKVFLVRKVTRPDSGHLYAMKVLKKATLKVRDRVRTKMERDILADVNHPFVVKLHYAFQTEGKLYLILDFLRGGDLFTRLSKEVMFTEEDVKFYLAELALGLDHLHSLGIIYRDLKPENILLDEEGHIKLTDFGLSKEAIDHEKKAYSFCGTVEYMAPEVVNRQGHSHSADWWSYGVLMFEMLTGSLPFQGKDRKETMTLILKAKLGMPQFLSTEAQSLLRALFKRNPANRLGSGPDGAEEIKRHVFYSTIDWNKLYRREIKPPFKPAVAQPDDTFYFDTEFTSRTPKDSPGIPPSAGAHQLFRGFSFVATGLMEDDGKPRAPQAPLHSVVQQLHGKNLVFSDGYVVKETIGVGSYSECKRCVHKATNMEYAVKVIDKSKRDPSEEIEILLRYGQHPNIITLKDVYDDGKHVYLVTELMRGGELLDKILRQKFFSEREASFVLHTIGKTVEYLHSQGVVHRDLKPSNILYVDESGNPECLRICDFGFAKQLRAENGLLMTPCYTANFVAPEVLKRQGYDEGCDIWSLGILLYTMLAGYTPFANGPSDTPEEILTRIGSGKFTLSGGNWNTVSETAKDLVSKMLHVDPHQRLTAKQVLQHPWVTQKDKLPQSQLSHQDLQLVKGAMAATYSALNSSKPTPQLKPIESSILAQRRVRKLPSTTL

[21] = AUC (0 to 24 hrs) in P-gp and BCRP knockout mouse at 2.5 mg/kg, po by LC-MS/MS method; assay type: ADME, organism-based; parameters: time < 24 hr, dose 2.5 mg/kg, route oral; settings: in vivo
[22] = Oral bioavailability in Sprague-Dawley rat at 5 mg/kg by LC-MS/MS method; assay type: ADME, organism-based; settings: in vivo
[23] = system: Rattus norvegicus; assay: Toxicity in human U87MG cells xenografted rat assessed as induction of body weight loss at 25 mg/kg, po bid for 4 weeks; assay type: organism-based; settings: in vivo, 672 h
[24] = system: Rattus norvegicus; assay: Toxicity in human U87MG cells xenografted rat assessed as induction of body weight loss at 25 to 50 mg/kg, po qd for 4 weeks; assay type: organism-based; settings: in vivo, 672 h
[25] = system: U-87 MG; assay: Antitumor activity against human U87MG cells xenografted in rat assessed as inhibition of tumor growth at 25 mg/kg, po bid for 4 weeks; assay type: functional, organism-based; settings: U-87MG ATCC
[26] = system: U-87 MG; assay: Antitumor activity against human U87MG cells xenografted in rat assessed as inhibition of tumor growth at 25 to 50 mg/kg, po qd for 4 weeks; assay type: functional, organism-based; settings: U-87MG ATCC

IC50 [1] [nM]	AUC(0-t) at 24 h [2] [ng·h/mL]	half-life [3] [h]	logP [4]	IC50 [6] [nM]	Vd [7] [L/kg]	IC50 [8] [nM]	IC50 [9] [nM]	solubility [10] [µg/mL]	CL free [12] [mL/min/kg]	clearance [13] [mL/min/kg]	Cmax [14] [ng/mL]	AUC(0-t) at 24 h [16] [ng·h/mL]	IC50 [17] [nM]	Cmax [18] [ng/mL]	IC50 [19] [nM]	IC50 [20] [nM]	bioavailability [22] [%]	Structure (SMILES)	Ratio IC50 [5]	INH [15] [µM]	also measured
4																		Cn1cc(-c2ccc(F)c(C(F)(F)F)c2)nc1C1CCN(c2ncnc3[nH]ncc23)CC1 [LY-2584702]			
1900	173	8.6	0.95	4	13.8	> 20000	20000	> 2000	85	64	33	108	412	189	230	699	14	C[C@@H]1CC(=O)Nc2ncnc(N3CCC(c4nc(C5CCOCC5)cn4CCN4CCCC4)CC3)c21	> 1000	> 100	Ratio [11]: 5; AUC(0-t) at 24 h [21]: 501 ng·h/mL
35			4.84	3		> 20000	36	35 (≈ 61.2 µM)					653		39	20		C[C@@H]1CC(=O)Nc2ncnc(N3CCC(c4nc(-c5ccc(F)c(C(F)(F)F)c5)cn4CCN4CCCC4)CC3)c21	> 1000	1.74	

The remaining lines, values behind:

Structure (SMILES)	IC50 [1] [nM]	AUC(0-t) at 24 h [2] [ng·h/mL]	half-life [3] [h]	logP [4]	IC50 [6] [nM]	Vd [7] [L/kg]	IC50 [8] [nM]	IC50 [9] [nM]	solubility [10] [µg/mL]	CL free [12] [mL/min/kg]	clearance [13] [mL/min/kg]	Cmax [14] [ng/mL]	AUC(0-t) at 24 h [16] [ng·h/mL]	IC50 [17] [nM]	Cmax [18] [ng/mL]	IC50 [19] [nM]	IC50 [20] [nM]	bioavailability [22] [%]	Ratio IC50 [5]	INH [15] [µM]	also measured
C[C@@H]1CC(=O)Nc2ncnc(N3CCC(c4nc(CCC(F)(F)F)cn4CCN4CCCC4)CC3)c21	399	638	2.3	2.39	5	11.6	> 20000	3980	990 (≈ 1960 µM)	43	74	76	290	84	109	92	568	55	> 1000	18.5	Activity [23]: Non-Toxic; Activity [24]: Non-Toxic; TGI [25]: Active; AUC(0-t) at 24 h [21]: 359 ng·h/mL; TGI [26]: Dose-dependent effect
C[C@@H]1CC(=O)Nc2ncnc(N3CCC(c4nc(C(F)(F)F)cn4CCN4CCCC4)CC3)c21	876	24100	3	1.66	11	0.65	> 20000	16300	1860 (≈ 3900 µM)	66	2.18			124		2460	272	64	> 1000	> 100	
